Measured values taken from US8329726B2, “Inhibitors of VEGF receptor and HGF receptor signaling” (MethylGene Inc., priority 2005, dated 2012).
Read-outs that look alike come from different tables or passages of the source.

Assays:
[1] = biological target: T1, VEGF receptor KDR (Homo sapiens, UniProt P35968); test: In vitro receptor tyrosine kinase assay (DELFIA), VEGF receptor KDR; format: biochemical
T1 construct: made in house; host or cells: Sf9 cells (Spodoptera frugiperda), baculovirus

[2] = biological target: T2, TPR-MET fusion protein (Homo sapiens, UniProt P08581); test: C-Met phosphorylation cell-based assay (MNNGHOS cells)
T2 construct: the MET gene on chromosome 7 encoding for its cytoplasmic region catalytic domain; host or cells: MNNGHOS cells; the other entry of the earlier key: TPR (P12270, Nucleoprotein TPR)
T2 sequence (P08581 with tags, fused parts or gaps): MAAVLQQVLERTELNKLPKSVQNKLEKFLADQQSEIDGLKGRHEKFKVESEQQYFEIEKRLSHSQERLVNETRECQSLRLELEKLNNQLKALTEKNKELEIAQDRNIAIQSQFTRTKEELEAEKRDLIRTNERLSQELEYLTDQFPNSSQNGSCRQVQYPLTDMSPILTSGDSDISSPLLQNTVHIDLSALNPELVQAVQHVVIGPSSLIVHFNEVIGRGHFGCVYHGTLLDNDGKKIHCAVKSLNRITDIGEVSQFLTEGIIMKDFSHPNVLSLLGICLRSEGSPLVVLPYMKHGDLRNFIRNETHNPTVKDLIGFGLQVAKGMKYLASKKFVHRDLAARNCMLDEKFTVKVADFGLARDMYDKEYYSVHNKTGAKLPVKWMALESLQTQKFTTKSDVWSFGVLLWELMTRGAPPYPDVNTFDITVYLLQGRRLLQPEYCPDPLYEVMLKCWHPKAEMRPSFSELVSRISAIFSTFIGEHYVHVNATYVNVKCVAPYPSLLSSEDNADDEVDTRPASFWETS
Excerpt: C-Met Phosphorylation Cell-Based Assay
Signal was quantitated by densitometry on Alpha-Imager.

[3] = biological target: T3, recombinant human c-Met/HGF receptor (Homo sapiens, UniProt P08581); test: In vitro receptor tyrosine kinase assay (DELFIA), c-Met/HGF receptor; format: biochemical
T3 construct: His tag (pBlueBacHis2A vector); made in house; host or cells: Hi-5 cells (Trichoplusia ni), baculovirus
T3 sequence (P08581 1078-1337): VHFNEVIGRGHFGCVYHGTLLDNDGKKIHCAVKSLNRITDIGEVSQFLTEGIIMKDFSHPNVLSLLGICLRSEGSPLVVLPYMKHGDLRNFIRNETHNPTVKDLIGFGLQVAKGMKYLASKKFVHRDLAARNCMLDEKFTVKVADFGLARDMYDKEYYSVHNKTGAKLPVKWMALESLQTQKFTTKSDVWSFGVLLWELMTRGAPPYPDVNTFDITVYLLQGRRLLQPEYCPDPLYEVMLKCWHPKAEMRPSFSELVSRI
Procedure: Cell pellets were frozen at −80° C. until purification was performed.
The coated plates were washed and stored at 4° C. […] After incubation, the kinase reactions were quenched with EDTA and the plates were washed.

[4] = tested on: A549; test: A549 wound healing inhibition (HGF dependent migration); format: cell-based; conditions: Homo sapiens, A549 cells, read-out: A549 WOUND HEALING INHIB IC50
Excerpt: (§1) HGF has well known activity in terms of inducing scattering and migration (wound healing) (Wells et al., Cell Motil Cytoskeleton. 2005 November 62(3):180-94; Miura et al., Urology 2001 December 58(6):1064-9; Nishimura et al., Int J Urol. 1998 May 5(3):276-81; Wang et al., Mol Cancer Ther. 2003 November; 2(11):1085-92; and Christensen et al., Cancer Res. 2003 Nov. 1; 63(21):7345-55).

[5] = tested on: DU145; test: DU145 scattering inhibition (HGF dependent scattering); format: cell-based; conditions: Homo sapiens, DU-145; HGF dependent scattering, DU145 cells; read-out: DU145 SCATTERING INHIB IC50
Excerpt: as §1

[6] = GST-VEGFR2 806-1356, 0.6 uM ATP, DELFIA, read-out: VEGFR (IC50)
[7] = MNNGHOS cells, 3 hours treatment, immunoblot, read-out: Y1230-34-35 TPR-MET phosphorylation (IC50)
[8] = recombinant c-Met IC, 10 uM ATP, DELFIA, read-out: C-Met (IC50)

T1 sequence (P35968 806-1356): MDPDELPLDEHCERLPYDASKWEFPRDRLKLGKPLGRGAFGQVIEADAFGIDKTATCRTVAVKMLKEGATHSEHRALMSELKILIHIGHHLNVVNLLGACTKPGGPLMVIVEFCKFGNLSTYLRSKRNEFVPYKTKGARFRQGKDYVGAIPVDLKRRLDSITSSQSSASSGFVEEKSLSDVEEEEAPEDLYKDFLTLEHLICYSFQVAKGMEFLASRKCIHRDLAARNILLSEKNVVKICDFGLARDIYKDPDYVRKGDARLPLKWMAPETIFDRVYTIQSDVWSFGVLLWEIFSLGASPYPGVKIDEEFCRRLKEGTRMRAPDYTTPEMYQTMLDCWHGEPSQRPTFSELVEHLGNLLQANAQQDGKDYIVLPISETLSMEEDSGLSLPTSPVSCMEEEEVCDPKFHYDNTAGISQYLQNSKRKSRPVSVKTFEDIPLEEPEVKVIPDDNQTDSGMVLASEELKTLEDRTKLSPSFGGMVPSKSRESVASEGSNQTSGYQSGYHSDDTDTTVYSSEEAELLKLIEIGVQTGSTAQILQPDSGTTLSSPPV

Row | IC50 [1, 6] [µM] | IC50 [2, 7] [µM] | IC50 [3, 8] [µM] | IC50 ([1]; read-out: VEGFR IC50) [µM] | IC50 [4] [µM] | IC50 ([3]; read-out: CMET IC50) [µM] | IC50 [5] [µM] | Structure (SMILES) | IC50 [2] [µM] | IC50 [3] [µM]
1 | 0.005 | ~0.2 | 0.042 |  |  |  |  | COc1ccccc1NC(=O)CC(=O)Nc1ccc(Oc2ccnc3cc(-c4nccn4C)sc23)c(F)c1 [Compound 28a, N^1-(3-Fluoro-4-(2-(1-methyl-1H-imidazol-2-yl)thieno[3,2-b]pyridin-7-yloxy)phenyl)-N^3-(2-methoxyphenyl)malonamide] |  | 
2 | 0.005 | 0.028 | 0.031 |  |  |  |  | Cn1ccnc1-c1cc2nccc(Oc3ccc(NC(=O)CC(=O)Nc4ccccc4F)cc3F)c2s1 [Compound 30a, N^1-(3-Fluoro-4-(2-(1-methyl-1H-imidazol-2-yl)thieno[3,2-b]pyridin-7-yloxy)phenyl)-N^3-(2-fluorophenyl)malonamide] |  | 
3 | 0.019 | > 5 | 0.365 |  |  |  |  | Cn1ccnc1-c1cc2nccc(Oc3ccc(NC(=O)CC(=O)Nc4ccncc4)cc3F)c2s1 [Compound 34, N^1-{3-Fluoro-4-[2-(1-methyl-1H-imidazol-2-yl)-thieno[3,2-b]pyridin-7-yloxy]-phenyl}-N^3-pyridin-4-yl-malonamide] |  | 
4 | 0.003 | 0.008 | 0.019 |  |  |  |  | Cn1cnc(-c2cc3nccc(Oc4ccc(NC(=O)CC(=O)Nc5ccccc5)cc4F)c3s2)c1 [Compound 5c, N^1-{3-Fluoro-4-[2-(1-methyl-1H-imidazol-4-yl)thieno[3,2-b]pyridin-7-yloxy]-phenyl}-N^3-phenylmalonamide] |  | 
5 | 0.013 | ~0.5 | 0.268 |  |  |  |  | Cn1ccnc1-c1cc2nccc(Oc3ccc(NC(=O)CC(=O)Nc4cccnc4)cc3F)c2s1 [Compound 40, N^1-(3-Fluoro-4-(2-(1-methyl-1H-imidazol-2-yl)thieno[3,2-b]pyridin-7-yloxy)phenyl)-N^3-(pyridine-3-yl)malonamide] |  | 
6 |  |  |  | < 0.05 | 1 to 5 | 0.05 to 0.25 | 1 to 5 | COc1ccccc1NC(=O)CC(=O)Nc1ccc(Oc2ccnc3cc(C(=O)N4CC(O)C4)sc23)c(F)c1 |  | 
7 |  |  |  | < 0.05 | < 1 | < 0.05 | < 1 | CCn1ccnc1-c1cc2nccc(Oc3ccc(NC(=O)N4CCN(c5ccccc5)C4=O)cc3F)c2s1 |  | 
8 |  |  |  | < 0.05 | < 1 | < 0.05 | < 1 | CCn1cnc(-c2cc3nccc(Oc4ccc(NC(=O)CC(=O)Nc5ccc(F)cc5)cc4F)c3s2)c1 |  | 
9 |  |  |  | 0.05 to 0.25 | > 10 | < 0.05 | > 10 | COc1ccccc1NC(=O)CC(=O)Nc1ccc(Oc2ccnc3cc(-c4ccc(OCCCN(C)C)c(OCCCN(C)C)c4)sc23)c(F)c1 |  | 
10 |  |  |  | < 0.05 | 1 to 5 | < 0.05 | < 1 | CN1CC=C(c2cc3nccc(Oc4ccc(NC(=O)C5(C(=O)Nc6ccccc6)CC5)cc4F)c3s2)CC1 |  | 
11 |  |  |  | < 0.05 | < 1 | < 0.05 | < 1 | CCCn1cnc(-c2cc3nccc(Oc4ccc(NC(=O)CC(=O)Nc5ccccc5F)cc4F)c3s2)c1 |  | 
12 |  |  |  | < 0.05 | < 1 | < 0.05 | < 1 | O=C(Nc1ccc(Oc2ccnc3cc(-c4cn(CCN5CCCC5)cn4)sc23)c(F)c1)N1CCN(c2ccccc2)C1=O |  | 
13 |  |  |  | 0.05 to 0.25 | > 10 | 0.05 to 0.25 | > 10 | COc1ccccc1NC(=O)CC(=O)Nc1ccc(Oc2ccnc3cc(C#CCN(C)C)sc23)c(F)c1 |  | 
14 |  |  |  | < 0.05 | 1 to 5 | 0.05 to 0.25 | < 1 | COCn1cnc(-c2cc3nccc(Oc4ccc(NC(=O)CC(=O)Nc5ccccc5OC)cc4F)c3s2)c1 |  | 
15 |  |  |  | < 0.05 | < 1 | < 0.05 | < 1 | Cn1cnc(-c2cc3nccc(Oc4ccc(NC(=O)N5CCN(c6ccc(F)cc6)C5=O)cc4F)c3s2)c1 |  | 
16 |  |  |  | < 0.05 | 1 to 5 | 0.05 to 0.25 | 1 to 5 | COc1ccc(NC(=O)C2(C(=O)Nc3ccc(Oc4ccnc5cc(-c6cn(C)cn6)sc45)c(F)c3)CC2)cc1 |  | 
17 |  |  |  | < 0.05 | < 1 | 0.05 to 0.25 | < 1 | Cn1ccnc1-c1cc2nccc(Oc3ccc(NC(=O)N4CCN(c5ccc(F)cc5)C4=O)cc3F)c2s1 |  | 
18 |  |  |  | 0.05 to 0.25 | 1 to 5 | 0.05 to 0.25 | > 10 | CCn1cnc(-c2cc3nccc(Oc4ccc(NC(=O)C(=O)NCCc5ccccc5F)cc4F)c3s2)c1 |  | 
19 |  |  |  | 0.05 to 0.25 | < 1 | < 0.05 | < 1 | COc1ccccc1NC(=O)CC(=O)Nc1ccc(Oc2ccnc3cc(-c4cccc(CN(C)C)c4)sc23)c(F)c1 |  | 
20 |  |  |  | < 0.05 | < 1 | < 0.05 | < 1 | CN1CCN(Cc2ccc(-c3cc4nccc(Oc5ccc(NC(=O)C6(C(=O)Nc7ccccc7)CC6)cc5F)c4s3)cc2)CC1 |  | 
21 |  |  |  | < 0.05 | 5 to 10 | 0.25 to 0.5 | > 10 | COc1ccccc1CCNC(=O)C(=O)Nc1ccc(Oc2ccnc3cc(-c4cn(C)cn4)sc23)c(F)c1 |  | 
22 |  |  |  | < 0.05 | < 1 | < 0.05 | < 1 | CN(C)CCn1cnc(-c2cc3nccc(Oc4ccc(NC(=O)CC(=O)Nc5ccccc5F)cc4F)c3s2)c1 |  | 
23 |  |  |  | < 0.05 | < 1 | < 0.05 | < 1 | CCn1cnc(-c2cc3nccc(Oc4ccc(NC(=O)N5CCN(c6ccccc6F)C5=O)cc4F)c3s2)c1 |  | 
24 |  |  |  | < 0.05 | 1 to 5 | < 0.05 | < 1 | CN1CCN(CCN(C)Cc2ccc(-c3cc4nccc(Oc5ccc(NC(=O)C6CCN(c7ccccc7)C6=O)cc5F)c4s3)cc2)CC1 (stereo not shown) |  | 
25 |  |  |  | < 0.05 | 1 to 5 | 0.05 to 0.25 | 1 to 5 | CCn1cnc(-c2cc3nccc(Oc4ccc(NC(=O)CC(=O)Nc5cccc(OC)c5)cc4F)c3s2)c1 |  | 
26 |  |  |  | < 0.05 | < 1 | < 0.05 | < 1 | CN1CCN(CCN(C)Cc2ccc(-c3cc4nccc(Oc5ccc(NC(=O)CC(=O)Nc6ccc(F)cc6)cc5F)c4s3)cc2)CC1 |  | 
27 |  |  |  | < 0.05 | < 1 | < 0.05 | < 1 | CCn1cnc(-c2cc3nccc(Oc4ccc(NC(=O)C5(C(=O)Nc6ccccc6)CC5)cc4F)c3s2)c1 [drawing 317] |  | 
28 |  |  |  | < 0.05 | < 1 | < 0.05 | < 1 | COc1ccccc1NC(=O)C1(C(=O)Nc2ccc(Oc3ccnc4cc(-c5cn(CCN6CCCC6)cn5)sc34)c(F)c2)CC1 |  | 
29 |  |  |  | > 0.5 | > 10 | 0.25 to 0.5 | > 10 | CC(C)N(C(=O)CC(=O)Nc1ccc(Oc2ccnc3cc(C4=CCN(C)CC4)sc23)c(F)c1)c1ccccc1 |  | 
30 |  |  |  | 0.05 to 0.25 | 1 to 5 | < 0.05 | 1 to 5 | CN1CC=C(c2cc3nccc(Oc4ccc(NC(=O)CC(=O)N(C)c5ccccc5)cc4F)c3s2)CC1 |  | 

Row | Structure (SMILES) | IC50 [1, 6] [µM] | IC50 [2, 7] [µM] | IC50 [3, 8] [µM] | IC50 ([1]; read-out: VEGFR IC50) [µM] | IC50 [4] [µM] | IC50 ([3]; read-out: CMET IC50) [µM] | IC50 [5] [µM] | IC50 [2] [µM] | IC50 [3] [µM]
31 | Cn1cncc1-c1cc2nccc(Oc3ccc(NC(=O)CC(=O)Nc4ccccc4)cc3F)c2s1 [Compound 5e, N^1-(3-Fluoro-4-(2-(1-methyl-1H-imidazol-5-yl)thieno[3,2-b]pyridin-7-yloxy)phenyl)-N^3-phenylmalonamide] | 0.005 |  |  |  |  |  |  | 0.155 | 0.016
